According to patent publication US20260250291A1, “INHIBITORS OF FGFR2 AND FGFR3 AND USES THEREOF” (Insilico Medicine IP Limited, priority 2023, published 2026):

Assays:
FGFR1 = target: T1, FGFR1 (Homo sapiens, UniProt P11362); assay: FGFR biochemical assay (LanthaScreen TR-FRET), FGFR1; details: ATP 28 μM, FGFR1 0.01 nM
T1 construct: purchased Carna
Protocol: (§1) The following procedure was used to test the compounds described herein: • Dilute the test compounds to 100× of the final desired highest concentration in reaction by 100% DMSO. • Perform a serial dilution in a 384-well source plate by transferring 15 μL to 30 μL of […] DMSO in the next well and so forth for a total of 10 concentrations. • Dispense 100 nL of compound solution each well from the source plate to a 384-well assay plate in duplicates by Echo (Labcyte). • Prepare a solution of 2× FGFR enzyme (Carna) in kinase buffer (50 mM HEPES, pH 7.5, 10 mM MgCl2, 4 mM DTT, 0.01% Tween-20 and 0.01% BSA). The final concentration of FGFR1/2/3/4 is 0.01. 0.01, 0.1 and 1 nM, respectively. • Add 5 μL of kinase solution to each well of the compound-containing assay plate, except for low control wells without enzyme (add 5 μL of 1× kinase buffer instead). • Shake the plate and incubate at room temperature for 10 minutes (for Example 1) (or 60 min for the remaining Examples in Table 4). • Prepare the substrate solution of Fluorescein-Poly GT (Invitrogen) and ATP (Sigma) in 1× kinase reaction buffer at 2-fold of the final concentration of each reagent desired in the assay (final concentration of ATP is 28, 22, 35 and 238 μM for FGFR1/2/3/4 respectively; Fluorescein-Poly GT is fixed at 20 nM). • Add 5 μL of substrate solution to each well of the assay plate to initiate the kinase reaction. • Shake the plate shortly and incubate at room temperature for 30 minutes. • Prepare 2× detection solution in Antibody Dilution Buffer (LanthaScreen® Tb—PY20 Antibody Kit, Invitrogen). • Add 10 μL of detection solution to each well of the assay plate to stop the reaction. • Mix briefly with centrifuge and incubate at room temperature for 60 minutes before reading on a microplate reader. • Collect data on Envision with excitation at 340 nm and emission at 520 nm and 495 nm. • Calculate Ratio of RFU 520 nm/RFU 495 nm. Convert Ratio values to percent inhibition values (Percent inhibition=(max−sample Ratio)/(max−min)*100) where “min” means the Ratio of no enzyme control and “max” means the Ratio of DMSO control. • Data are analyzed and curve fitting is performed by XLFit Excel add-in version 5.4.0.8. The IC50 calculation equation is: Y=Bottom+(Top−Bottom)/(1+(IC50/X)^HillSlope.

FGFR2 = target: T2, FGFR2 (Homo sapiens, UniProt P21802); assay: FGFR biochemical assay (LanthaScreen TR-FRET), FGFR2; details: ATP 22 μM, FGFR2 0.01 nM
T2 construct: purchased Carna
T2 sequence (P21802 22-821): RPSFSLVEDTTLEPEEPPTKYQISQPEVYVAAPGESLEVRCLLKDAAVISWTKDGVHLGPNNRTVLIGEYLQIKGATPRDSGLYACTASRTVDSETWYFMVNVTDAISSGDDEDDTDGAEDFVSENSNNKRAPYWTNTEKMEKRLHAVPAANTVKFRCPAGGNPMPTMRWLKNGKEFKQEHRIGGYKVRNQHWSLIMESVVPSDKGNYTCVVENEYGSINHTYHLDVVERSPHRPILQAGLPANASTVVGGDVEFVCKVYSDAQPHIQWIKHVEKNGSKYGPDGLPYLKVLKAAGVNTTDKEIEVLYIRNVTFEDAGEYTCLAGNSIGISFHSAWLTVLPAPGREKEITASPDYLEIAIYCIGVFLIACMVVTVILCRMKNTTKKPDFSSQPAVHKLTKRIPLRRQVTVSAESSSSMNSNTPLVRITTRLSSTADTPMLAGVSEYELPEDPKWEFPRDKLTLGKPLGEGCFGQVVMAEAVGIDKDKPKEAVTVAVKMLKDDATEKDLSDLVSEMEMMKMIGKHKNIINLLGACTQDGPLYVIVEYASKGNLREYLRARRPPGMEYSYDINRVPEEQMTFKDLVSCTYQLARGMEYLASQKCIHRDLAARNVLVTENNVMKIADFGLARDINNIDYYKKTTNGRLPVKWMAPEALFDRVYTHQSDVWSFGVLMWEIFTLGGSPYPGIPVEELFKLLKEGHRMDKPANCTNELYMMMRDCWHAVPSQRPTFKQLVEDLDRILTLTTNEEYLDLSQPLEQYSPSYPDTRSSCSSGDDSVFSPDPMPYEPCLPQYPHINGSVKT
Protocol: as §1

RT4 (FGFR3) = assay: Cellular proliferation assay (CellTiter-Glo), RT4; type: cell-based; details: Homo sapiens, RT-4, RT4 cells, 72 hours
Protocol: (§2) Compounds were tested proliferation assay in SNU-16, KATO-III, SNU-1, AGS, AN3CA, MFE280, MKN45, KLE, RT112-84, RT4, T24, UM-UC-3, KMS11, OPM-2, RAPI8226, U266, SUM 52PE, MCF7 and BaF3 cell lines. Test compounds were prepared in 10 mM DMSO stock solutions, add […] 1000× stock solution to 98 μL growth medium to get […] final concentration, 3-fold 9-points dilution was performed. Cell lines suspension of 95 μL were seeded into 96-well plate and incubated at 37° C. for 24 hours, add 5 μL 20× compounds solutions to 96-well plate according to the plate map with Echo550 liquid handler. Final DMSO concentration in each well is 0.1%, cell lines were incubated at 37° C. for 72 hours, then equilibrate the assay plate to room temperature before measurement, add 50 μL of CellTiter-Glo® Reagent into each well, mix contents for 2 minutes on an orbital shaker to induce cell lysis and incubate at room temperature for 10 minutes to stabilize luminescent signal, Chemiluminescence was then read on an EnVision reader. Inhibition Rate (Inh. %) was calculated relative to vehicle (DMSO) treated control wells using following formula: Inhibition Rate (Inh %)=100−(RLU compound−RLU blank)/(RLU control−RLU blank)*100%, Data were analyzed using Graphpad Prism 7.0, fitting to a 4-parameter equation to generate concentration response curves.

FGFR3 = target: T3, FGFR3 (Homo sapiens, UniProt P22607); assay: FGFR biochemical assay (LanthaScreen TR-FRET), FGFR3; details: ATP 35 μM, FGFR3 0.1 nM
T3 construct: purchased Carna
T3 sequence (P22607 23-806): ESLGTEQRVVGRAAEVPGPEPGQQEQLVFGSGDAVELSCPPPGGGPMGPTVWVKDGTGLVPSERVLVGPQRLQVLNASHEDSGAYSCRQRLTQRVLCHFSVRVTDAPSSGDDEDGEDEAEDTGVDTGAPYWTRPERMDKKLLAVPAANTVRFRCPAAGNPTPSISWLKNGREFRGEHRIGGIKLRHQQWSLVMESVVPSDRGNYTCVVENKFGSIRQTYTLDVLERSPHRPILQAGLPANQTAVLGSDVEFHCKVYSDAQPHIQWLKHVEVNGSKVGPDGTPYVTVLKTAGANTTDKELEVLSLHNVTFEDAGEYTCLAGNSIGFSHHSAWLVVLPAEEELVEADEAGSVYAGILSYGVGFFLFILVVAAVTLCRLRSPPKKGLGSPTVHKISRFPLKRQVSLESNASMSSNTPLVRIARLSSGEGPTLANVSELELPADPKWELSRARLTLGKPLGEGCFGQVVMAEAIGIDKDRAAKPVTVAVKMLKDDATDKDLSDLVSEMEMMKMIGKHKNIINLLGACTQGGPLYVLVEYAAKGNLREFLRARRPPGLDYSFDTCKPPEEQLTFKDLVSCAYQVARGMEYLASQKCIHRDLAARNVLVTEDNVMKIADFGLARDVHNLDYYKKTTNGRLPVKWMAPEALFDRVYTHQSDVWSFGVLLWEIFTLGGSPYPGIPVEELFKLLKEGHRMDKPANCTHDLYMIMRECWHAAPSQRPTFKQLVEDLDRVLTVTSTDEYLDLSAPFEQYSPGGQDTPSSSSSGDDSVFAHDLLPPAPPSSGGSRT
Protocol: as §1

SNU-16 (FGFR2) = assay: Cellular proliferation assay (CellTiter-Glo), SNU-16; type: cell-based; details: Homo sapiens, SNU-16 cells, 72 hours
Protocol: as §2

[1] = enzyme pre-incubation 10 minutes (for Example 1)

T1 sequence (P11362 22-822): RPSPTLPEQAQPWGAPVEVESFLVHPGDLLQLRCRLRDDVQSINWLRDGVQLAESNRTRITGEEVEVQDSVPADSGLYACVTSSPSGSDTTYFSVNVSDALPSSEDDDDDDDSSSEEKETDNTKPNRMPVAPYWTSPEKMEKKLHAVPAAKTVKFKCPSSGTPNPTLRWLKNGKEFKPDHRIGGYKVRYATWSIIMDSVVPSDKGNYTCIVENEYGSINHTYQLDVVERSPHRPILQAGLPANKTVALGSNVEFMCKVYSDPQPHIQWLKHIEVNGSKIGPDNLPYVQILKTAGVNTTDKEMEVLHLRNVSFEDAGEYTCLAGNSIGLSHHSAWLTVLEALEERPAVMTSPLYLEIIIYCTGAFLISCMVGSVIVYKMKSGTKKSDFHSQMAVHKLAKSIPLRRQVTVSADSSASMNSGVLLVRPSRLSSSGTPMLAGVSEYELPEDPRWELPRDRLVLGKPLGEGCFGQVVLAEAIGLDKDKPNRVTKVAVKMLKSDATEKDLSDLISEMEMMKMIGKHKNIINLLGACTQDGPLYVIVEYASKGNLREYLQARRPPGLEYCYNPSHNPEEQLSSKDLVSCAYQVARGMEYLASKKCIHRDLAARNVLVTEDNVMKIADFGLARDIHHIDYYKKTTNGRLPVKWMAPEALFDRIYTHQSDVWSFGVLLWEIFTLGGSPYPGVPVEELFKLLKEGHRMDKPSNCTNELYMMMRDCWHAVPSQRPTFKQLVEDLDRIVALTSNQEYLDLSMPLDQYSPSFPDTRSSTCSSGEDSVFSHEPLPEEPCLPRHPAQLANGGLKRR

| SMILES | IC50 (FGFR1; enzyme pre-incubation 60 min) [nM] | IC50 (FGFR2; enzyme pre-incubation 60 min) [nM] | IC50 (RT4 (FGFR3)) [nM] | IC50 (FGFR3; enzyme pre-incubation 60 min) [nM] | IC50 (SNU-16 (FGFR2)) [nM] | IC50 (FGFR1; [1]) [nM] | IC50 (FGFR2; [1]) [nM] | IC50 (FGFR3; [1]) [nM] |
| --- | --- | --- | --- | --- | --- | --- | --- | --- |
| C=C(F)C(=O)Nc1ccc(-c2c(-c3ccc(Oc4nccc(C)n4)c(F)c3)c(C(N)=O)n3ccc(C)nc23)cc1 [Example 4] | 100 to 1000 | 10 to 100 | 100 to 1000 | 100 to 1000 | 10 to 100 | – | – | – |
| C=C(F)C(=O)Nc1ccc(-c2c(-c3ccc(Oc4nccc(C)n4)c(F)c3)c(C(N)=O)n3cc(N4CCOCC4)cnc23)cc1 [Example 8] | > 1000 | < 10 | 10 to 100 | 10 to 100 | < 10 | – | – | – |
| C=CC(=O)Nc1ccc(-c2c(-c3ccc(Oc4cccc(C)n4)cc3)c(C(N)=O)n3cccnc23)cc1 [Example 1] | – | – | – | – | – | 100 to 1000 | < 10 | 10 to 100 |
| C=C(F)C(=O)Nc1ccc(-c2c(-c3ccc(Oc4nccc(C)n4)c(F)c3)c(C(N)=O)n3cccnc23)cc1 [Example 11] | 100 to 1000 | < 10 | – | 10 to 100 | – | – | – | – |
| C=C(F)C(=O)Nc1ccc(-c2c(-c3ccc(Oc4nccc(C)n4)cc3)c(C(N)=O)n3cc(N4CCN(C)CC4)cnc23)cc1 [Example 6] | 100 to 1000 | < 10 | – | 10 to 100 | – | – | – | – |
| CC#CC(=O)Nc1ccc(-c2c(-c3ccc(Oc4nccc(C)n4)c(F)c3)c(C(N)=O)n3cc(C)cnc23)cc1 [Example 13] | 100 to 1000 | < 10 | 10 to 100 | 10 to 100 | < 10 | – | – | – |
| C=C(F)C(=O)Nc1ccc(-c2c(-c3ccc(Oc4nccc(C)n4)c(F)c3)c(C(N)=O)n3cc(C)ncc23)cc1 [Example 3] | 100 to 1000 | < 10 | 10 to 100 | 10 to 100 | < 10 | – | – | – |
| C=C(F)C(=O)Nc1ccc(-c2c(-c3ccc(Oc4nccc(C)n4)c(F)c3)c(C(N)=O)n3ccccc23)cc1 [Example 12] | 100 to 1000 | < 10 | – | 10 to 100 | – | – | – | – |
| Cc1cnc2c(-c3ccc(NC(=O)/C(F)=C/CN(C)C)cc3)c(-c3ccc(Oc4nccc(C)n4)c(F)c3)c(C(N)=O)n2c1 [Example 21] | > 1000 | 10 to 100 | – | 10 to 100 | – | – | – | – |
| C=C(F)C(=O)Nc1ccc(-c2c(-c3ccc(Oc4nccc(C)n4)c(F)c3)c(C(N)=O)n3cc(C)cnc23)cc1 [Example 2] | 100 to 1000 | < 10 | 10 to 100 | 10 to 100 | < 10 | – | – | – |
| C=C(F)C(=O)Nc1ccc(-c2c(-c3ccc(Oc4nccc(C)n4)c(F)c3)c(C(N)=O)n3cc(CC)cnc23)cc1 [Example 7] | > 1000 | < 10 | 10 to 100 | 100 to 1000 | – | – | – | – |
| C=C(F)C(=O)Nc1ccc(-c2c(-c3ccc(Oc4nccc(C)n4)cc3Cl)c(C(N)=O)n3cc(C)cnc23)cc1 [Example 15] | > 1000 | 100 to 1000 | – | 100 to 1000 | – | – | – | – |
| C=C(F)C(=O)Nc1ccc(-c2c(-c3ccc(Oc4nccc(C)n4)c(F)c3)c(C(N)=O)n3cc(Cl)cnc23)cc1 [Example 16] | 100 to 1000 | 10 to 100 | – | 100 to 1000 | – | – | – | – |
| Cc1cnc2c(-c3ccc(NC(=O)/C=C/CNC4COC4)cc3)c(-c3ccc(Oc4nccc(C)n4)c(F)c3)c(C(N)=O)n2c1 [Example 22] | 100 to 1000 | < 10 | 10 to 100 | 10 to 100 | < 10 | – | – | – |
| C=C(F)C(=O)Nc1ccc(-c2c(-c3ccc(Oc4nccc(C)n4)c(F)c3)c(C(N)=O)n3cc(C#CC)cnc23)cc1 [Example 10] | 100 to 1000 | 10 to 100 | – | 100 to 1000 | – | – | – | – |
| C=C(F)C(=O)N1CCc2cc(-c3c(-c4ccc(Oc5nccc(C)n5)c(F)c4)c(C(N)=O)n4cc(C)cnc34)ccc21 [Example 17] | 100 to 1000 | < 10 | 10 to 100 | < 10 | < 10 | – | – | – |
| Cc1cnc2c(-c3ccc(NC(=O)/C=C/CN4CC(O)C4)cc3)c(-c3ccc(Oc4nccc(C)n4)c(F)c3)c(C(N)=O)n2c1 [Example 23] | 10 to 100 | < 10 | 100 to 1000 | < 10 | 10 to 100 | – | – | – |
| C=C(C)C(=O)Nc1ccc(-c2c(-c3ccc(Oc4nccc(C)n4)c(F)c3)c(C(N)=O)n3cc(C)cnc23)c(F)c1 [Example 19] | > 1000 | 10 to 100 | – | 100 to 1000 | – | – | – | – |
| C=C(F)C(=O)Nc1ccc(-c2c(-c3ccc(Oc4nccc(C)n4)cc3)c(C(N)=O)n3cc(C)cnc23)cc1 [Example 20] | 100 to 1000 | < 10 | 10 to 100 | 10 to 100 | < 10 | – | – | – |
| C=C(F)C(=O)Nc1ccc(-c2c(-c3ccc(Oc4nccc(C)n4)c(F)c3)c(C(N)=O)n3cc(C)cnc23)c(F)c1 [Example 18] | 10 to 100 | < 10 | – | < 10 | – | – | – | – |
| C=C(F)C(=O)Nc1ccc(-c2c(-c3ccc(Oc4nccc(C)n4)c(F)c3)c(C(N)=O)n3cc(-c4cnn(C)c4)cnc23)cc1 [Example 9] | 100 to 1000 | < 10 | – | 100 to 1000 | – | – | – | – |
| C=C(F)C(=O)Nc1ccc(-c2c(-c3ccc(Oc4nccc(C)n4)c(F)c3)c(C(N)=O)n3cc(C4CC4)cnc23)cc1 [Example 5] | 100 to 1000 | 10 to 100 | 10 to 100 | 10 to 100 | 10 to 100 | – | – | – |
| Cc1cnc2c(-c3ccc(NC(=O)/C=C/CN(C)C)cc3)c(-c3ccc(Oc4nccc(C)n4)c(F)c3)c(C(N)=O)n2c1 [Example 14] | 100 to 1000 | < 10 | 10 to 100 | 10 to 100 | < 10 | – | – | – |
